Results from the NIST ThermoML archive (doi:10.1016/j.jct.2018.07.011).

Test: relative permittivity at various frequencies (dimensionless)
Settings: Reentrant cavity resonator

C=C(F)C(F)(F)F [2,3,3,3-tetrafluoro-1-propene]
Settings | relative permittivity
248.51 K, 10580 kPa, Liquid, Frequency=120 MHz | 11.2191
248.71 K, 8271 kPa, Liquid, Frequency=120 MHz | 11.1539
248.95 K, 6475 kPa, Liquid, Frequency=120 MHz | 11.0761
249.16 K, 4746 kPa, Liquid, Frequency=120 MHz | 11.0131
249.37 K, 3089 kPa, Liquid, Frequency=120 MHz | 10.9467
249.67 K, 10580 kPa, Liquid, Frequency=120 MHz | 11.1976
249.71 K, 8272 kPa, Liquid, Frequency=120 MHz | 11.1217
249.75 K, 6476 kPa, Liquid, Frequency=120 MHz | 11.0617
249.76 K, 4750 kPa, Liquid, Frequency=120 MHz | 10.9998
249.77 K, 3089 kPa, Liquid, Frequency=120 MHz | 10.9379
273.14 K, 10470 kPa, Liquid, Frequency=120 MHz | 9.47583
273.41 K, 10970 kPa, Liquid, Frequency=120 MHz | 9.48739
273.5 K, 7893 kPa, Liquid, Frequency=120 MHz | 9.37498
273.59 K, 8235 kPa, Liquid, Frequency=120 MHz | 9.38477
273.69 K, 4628 kPa, Liquid, Frequency=120 MHz | 9.24224
273.79 K, 5794 kPa, Liquid, Frequency=120 MHz | 9.28399
273.95 K, 1601 kPa, Liquid, Frequency=120 MHz | 9.10293
274.32 K, 3368 kPa, Liquid, Frequency=120 MHz | 9.17004
275.05 K, 1116 kPa, Liquid, Frequency=120 MHz | 9.04939
297.54 K, 7675 kPa, Liquid, Frequency=120 MHz | 7.93035
297.56 K, 247.8 kPa, Gas, Frequency=340 MHz | 1.03846
297.57 K, 4942 kPa, Liquid, Frequency=120 MHz | 7.79441
297.57 K, 10760 kPa, Liquid, Frequency=120 MHz | 8.06626
297.58 K, 2537 kPa, Liquid, Frequency=120 MHz | 7.65994
297.61 K, 259.6 kPa, Gas, Frequency=340 MHz | 1.04022
297.63 K, 225.5 kPa, Gas, Frequency=340 MHz | 1.03469
297.67 K, 100.9 kPa, Gas, Frequency=340 MHz | 1.01502
321.5 K, 203 kPa, Gas, Frequency=340 MHz | 1.02682
321.53 K, 644.4 kPa, Gas, Frequency=340 MHz | 1.09027
321.55 K, 817.8 kPa, Gas, Frequency=340 MHz | 1.11132
321.63 K, 4262 kPa, Liquid, Frequency=120 MHz | 6.51012
321.65 K, 7089 kPa, Liquid, Frequency=120 MHz | 6.70204
321.65 K, 10590 kPa, Liquid, Frequency=120 MHz | 6.89633
345.73 K, 218.5 kPa, Gas, Frequency=340 MHz | 1.02515
345.74 K, 874.9 kPa, Gas, Frequency=340 MHz | 1.10115
345.75 K, 693 kPa, Gas, Frequency=340 MHz | 1.08291
345.89 K, 4404 kPa, Liquid, Frequency=120 MHz | 5.30782
345.93 K, 6822 kPa, Liquid, Frequency=120 MHz | 5.57121
346.01 K, 10290 kPa, Liquid, Frequency=120 MHz | 5.83949
365.22 K, 908.6 kPa, Gas, Frequency=340 MHz | 1.09359
365.25 K, 713.8 kPa, Gas, Frequency=340 MHz | 1.07604
365.3 K, 230.9 kPa, Gas, Frequency=340 MHz | 1.0241

[Ar] [argon]
Gas, Frequency=340 MHz
Settings | relative permittivity
272.94 K, 8533 kPa | 1.05077
273.04 K, 5986 kPa | 1.03462
273.17 K, 3359 kPa | 1.01869
297.44 K, 9503 kPa | 1.05146
297.45 K, 3675 kPa | 1.01893
297.45 K, 6614 kPa | 1.03509
321.92 K, 4005 kPa | 1.01899
321.93 K, 7248 kPa | 1.03523

O=C=O [carbon dioxide]
Settings | relative permittivity
234.7 K, 5002 kPa, Liquid, Frequency=270 MHz | 1.73109
234.76 K, 4012 kPa, Liquid, Frequency=270 MHz | 1.729
234.77 K, 2015 kPa, Liquid, Frequency=270 MHz | 1.72473
234.78 K, 3015 kPa, Liquid, Frequency=270 MHz | 1.72689
235.13 K, 6031 kPa, Liquid, Frequency=270 MHz | 1.73287
248.98 K, 4006 kPa, Liquid, Frequency=270 MHz | 1.68089
249.12 K, 3018 kPa, Liquid, Frequency=270 MHz | 1.67791
249.15 K, 2012 kPa, Liquid, Frequency=270 MHz | 1.67486
251.38 K, 6015 kPa, Liquid, Frequency=270 MHz | 1.68401
251.72 K, 5017 kPa, Liquid, Frequency=270 MHz | 1.6809
252.7 K, 6996 kPa, Liquid, Frequency=270 MHz | 1.685
273.6 K, 7004 kPa, Liquid, Frequency=270 MHz | 1.59893
273.75 K, 6019 kPa, Liquid, Frequency=270 MHz | 1.5936
274.12 K, 5019 kPa, Liquid, Frequency=270 MHz | 1.58749
274.66 K, 4024 kPa, Liquid, Frequency=270 MHz | 1.58054
297.38 K, 1176 kPa, Gas, Frequency=340 MHz | 1.01138
297.57 K, 7002 kPa, Liquid, Frequency=270 MHz | 1.45192
297.6 K, 5992 kPa, Gas, Frequency=340 MHz | 1.10291
297.61 K, 6991 kPa, Liquid, Frequency=270 MHz | 1.45145
297.64 K, 2005 kPa, Gas, Frequency=340 MHz | 1.02052
297.7 K, 3002 kPa, Gas, Frequency=340 MHz | 1.03319
297.73 K, 3998 kPa, Gas, Frequency=340 MHz | 1.0487
297.75 K, 4570 kPa, Gas, Frequency=340 MHz | 1.05962

F/C=C/C(F)(F)F [trans-1,3,3,3-tetrafluoropropene]
Settings | relative permittivity
248.98 K, 2078 kPa, Liquid, Frequency=200 MHz | 3.44336
249 K, 4121 kPa, Liquid, Frequency=200 MHz | 3.45458
249.02 K, 6251 kPa, Liquid, Frequency=200 MHz | 3.46583
249.06 K, 8448 kPa, Liquid, Frequency=200 MHz | 3.47696
249.07 K, 10680 kPa, Liquid, Frequency=200 MHz | 3.48805
273.01 K, 7894 kPa, Liquid, Frequency=200 MHz | 3.19554
273.19 K, 10470 kPa, Liquid, Frequency=200 MHz | 3.21071
273.23 K, 4627 kPa, Liquid, Frequency=200 MHz | 3.17426
273.36 K, 1598 kPa, Liquid, Frequency=200 MHz | 3.15254
273.46 K, 486 kPa, Liquid, Frequency=200 MHz | 3.14403
273.66 K, 73.9 kPa, Gas, Frequency=340 MHz | 1.00498
274.29 K, 139 kPa, Gas, Frequency=340 MHz | 1.00927
297.59 K, 79.6 kPa, Gas, Frequency=340 MHz | 1.00458
297.59 K, 240.4 kPa, Gas, Frequency=340 MHz | 1.01364
297.6 K, 349.7 kPa, Gas, Frequency=340 MHz | 1.02033
297.63 K, 5735 kPa, Liquid, Frequency=200 MHz | 2.92689
297.63 K, 10470 kPa, Liquid, Frequency=200 MHz | 2.96416
297.64 K, 140.5 kPa, Gas, Frequency=340 MHz | 1.00794
297.65 K, 7982 kPa, Liquid, Frequency=200 MHz | 2.94513
297.67 K, 1491 kPa, Liquid, Frequency=200 MHz | 2.88752
297.67 K, 3490 kPa, Liquid, Frequency=200 MHz | 2.90668
321.55 K, 211.2 kPa, Gas, Frequency=340 MHz | 1.01063
321.63 K, 210.1 kPa, Gas, Frequency=340 MHz | 1.0105
321.76 K, 3999 kPa, Liquid, Frequency=200 MHz | 2.66845
321.78 K, 7249 kPa, Liquid, Frequency=200 MHz | 2.70714
321.79 K, 10980 kPa, Liquid, Frequency=200 MHz | 2.74469
345.96 K, 227.2 kPa, Gas, Frequency=340 MHz | 1.01022
345.97 K, 225.2 kPa, Gas, Frequency=340 MHz | 1.01005
346.5 K, 4377 kPa, Liquid, Frequency=200 MHz | 2.42553
346.53 K, 6645 kPa, Liquid, Frequency=200 MHz | 2.46858
346.59 K, 9481 kPa, Liquid, Frequency=200 MHz | 2.51185
365.54 K, 236.9 kPa, Gas, Frequency=340 MHz | 1.00981
365.79 K, 239.2 kPa, Gas, Frequency=340 MHz | 1.00997
365.83 K, 4248 kPa, Liquid, Frequency=200 MHz | 2.19675
365.87 K, 6046 kPa, Liquid, Frequency=200 MHz | 2.25994
365.93 K, 9015 kPa, Liquid, Frequency=200 MHz | 2.33081
